Reference: patent US20070155771A1, “Methods and means for treating protein conformational disorders” (priority 2003, published 2007)

Key:
[1] = test system: human wild-type α-synuclein; assay: α-Synuclein degradation in inducible PC12 cell lines (western blot), wildtype; format: cell-based, rat; conditions: 10 mM 3MA, 200 nM bafilomycin A1; for α-synuclein levels, mitotic wildtype lines: 48 hours; for fold increase in α-synuclein levels (densitometry as a function of tubulin) vs control cells, wildtype: +/− SE, did not reach significance
Text: (§1) Human α-synuclein with a HA tag at the N-terminus and a 6His tag at the C-terminus was amplified from pHM6α-synuclein constructs (Furlong, R. A. et a; 1 (2000) Biochem. J. 346, 577581) and inserted into pTRE2 hyg vector (Clontech) using Nhe I/Sal I sites. Constructs were confirmed by sequencing before use. The pTRE2 hygα-synuclein construct and pTettTS (Clontech) were cotransfected into PC12 TetOn cells (Clontech), using Lipofectamine (Invitrogen) and Plus Reagent (Invitrogen). Single colonies were isolated using cloning cylinders (Sigma) and cells were grown and tested for α-synuclein expression upon induction. Cell lines were subjected to a further round of purification from single colonies to ensure that lines were pure.
(§2) PC12 cells were grown in Dulbecco's modified eagle's medium (DMEM, Sigma) supplemented with 10% horse serum (Sigma), 5% fetal bovine serum (Sigma), 100 U/ml penicillin/streptomycin, 2 mM L-glutamine, […] G418 (Invitrogen) and […] hygromycin B (Calbiochem) at 37° C., 10% CO2. To induce differentiation, cells were grown in media containing 1% horse serum and 100 ng/ml nerve growth factor (2.5S, Upstate Biotechnology) and incubated for about 5 days. Cells were induced to express synuclein with […] doxycycline (Sigma).
(§3) Cells were induced for 24 hours and then washed twice with media to remove doxycycline. Then cells were incubated in […] media containing either 10 mM 3-methyladenine (3MA, Sigma), 200 nM bafilomycin A1 (Sigma), […] rapamycin (Sigma), […] lactacystin (Sigma), […] epoxomicin (Affinity Research Products Ltd) or carrier controls (water or DMSO (Sigma)). 3MA and lactacystin were made up in water and rapamycin, epoxomicin and bafilomycin were dissolved in DMSO.
(§4) After 24 hours the media was replaced with fresh media plus drug and after a further 24 hours cell pellets were collected and stored at −80° C. until required.
(§5) Cell pellets were collected and stored at −80° C. until needed. Cells were lysed on ice in lysis buffer: 1% TritonX100, 20 mM TRIS pH7.5, 137 mM NaCl, 1 mM EGTA, 10% glycerol, 1.5 mM MgCl2 and protease inhibitor cocktail (Complete, Roche). […]
(§6) Each lane was loaded with protein from a similar number of cells, based on cell counting at the time of seeding. Proteins were transferred onto Hybond ECL nitrocellulose membrane (Amersham). α-Synuclein was detected with an antiHA monoclonal antibody (Covance) at 1:1000 dilution with 4-18 hours incubation. HRP conjugated antimouse antibody (Amersham) at 1:2000 dilution was then added to blots and antibody was detected using ECL blotting reagents (Amersham) and Hyperfilm ECL (Amersham). […]

[2] = test system: human A53T α-synuclein; assay: α-Synuclein degradation in inducible PC12 cell lines (western blot), A53T; format: cell-based, rat; conditions: 10 mM 3MA, 200 nM bafilomycin A1; 48 hours
Text: as §1, with “pure. […]” for “pure.”
as §6

[3] = test system: human A30P α-synuclein; assay: α-Synuclein degradation in inducible PC12 cell lines (western blot), A30P; format: cell-based, rat; conditions: 10 mM 3MA, 200 nM bafilomycin A1; for α-synuclein levels, mitotic A30P lines: 48 hours; for fold increase in α-synuclein levels (densitometry as a function of tubulin) vs control cells, A30P: +/− SE, significant
Text: as §1, §2, §3, §4, §5, §6

[4] = test system: human wild-type, A30P and A53T α-synuclein; assay: α-Synuclein degradation in inducible PC12 cell lines (western blot), all forms; format: cell-based; conditions: for α-synuclein levels: induced 24 hours, doxycycline removed, drug 48 hours, cycling and differentiated cells, 0.2 mg/ml rapamycin, 10 mM lactacystin, 10 mM epoxomicin [sic]
Text: as §1, §2, §3, §4
Cell pellets were collected and stored at −80° C. until needed. Cells were lysed on ice in lysis buffer: 1% TritonX100, 20 mM TRIS pH7.5, 137 mM NaCl, 1 mM EGTA, 10% glycerol, 1.5 mM MgCl2 and protease inhibitor cocktail (Complete, Roche).
Samples were then mixed with loading buffer: 62.5 mM TRIS pH 6.8, 2% SDS, 10% glycerol, 0.05% bromophenol blue, 100 mM dithiothreitol and 700 mM β-mercaptoethanol and boiled before loading onto 14% denaturing polyacrylamide gels.
Each lane was loaded with protein from a similar number of cells, based on cell counting at the time of seeding. Proteins were transferred onto Hybond ECL nitrocellulose membrane (Amersham). α-Synuclein was detected with an antiHA monoclonal antibody (Covance) at 1:1000 dilution with 4-18 hours incubation. HRP conjugated antimouse antibody (Amersham) at 1:2000 dilution was then added to blots and antibody was detected using ECL blotting reagents (Amersham) and Hyperfilm ECL (Amersham). Blots were stripped and then reprobed for α-tubulin (Sigma) at 1:1000 dilution.
PC12 cell lines as described above (i.e. mitotic and neuronally differentiated wild-type, A53T and A30P PC12 lines) were induced for 24 hours, then doxycycline was removed and the drugs were added for 48 hours. The trends we observed were similar in cells treated with drugs for 24 and 72 hours.

[5] = test system: Drosophila HD model expressing the first 171 residues of huntingtin with 120 glutamines (120Q) in photoreceptors; assay: Drosophila HD model, pseudopupil analysis of photoreceptor neurodegeneration; format: in vivo
Method: A Drosophila line y; w; gmr-Q120 was crossed to w; iso2; iso3 to obtain progeny heterozygous for the transgene gmr-Q120. Flies were allowed to mate on normal food for 2-3 days and then transferred to food containing 1 μM rapamycin (Sigma) or DMSO. After eclosion, flies were placed on food containing 1 μM rapamycin or DMSO. Flies were transferred to newly prepared food every day.
Pseudopupil analysis: Adult male flies were decapitated and the head was mounted onto a microscope slide using nail polish. Analysis was performed with an optical microscope using a 60× objective with the observer blinded to the identity of the slides. Approximately 75 ommatidia were evaluated for each group (approx. 15 ommatidia in 5 individuals). Each experiment was done twice. The frequency of ommatidia with different numbers of visible rhabdomeres was based on all visible photoreceptor neurons, irrespective of their shape or brightness. Flies were raised at 25° C. with 12/12-h light/dark-cycle, 70% humidity.
A Drosophila HD model that expresses the first 171 residues of huntingtin with 120 glutamines (120Q) in photoreceptors (Jackson, G. R., et al. Neuron 21, 633-642 (1998)) was used to test whether long-term mTOR inhibition with rapamycin would have beneficial effects in vivo. The mutant flies show photoreceptor neurodegeneration, a phenotype that is easily quantifiable using the pseudopupil technique (Franceschini, N. & Kirschfeld K. Kybernetik 9, 159-182 (1971)). No degeneration is seen in flies expressing analogous constructs with 20Q (wild-type transgenics). The compound eye of Drosophila comprises many ommatidia. An ommatidium normally contains eight photoreceptor neurons with light gathering parts called rhabdomeres, seven of which can be easily visualized using the pseudopupil technique. The number of visible rhabdomeres in each ommatidium decreases as a function of time when there is photoreceptor neurodegeneration, like in the 120Q fly lines.

| Compound | α-synuclein levels, mitotic wildtype lines [1] | fold increase in α-synuclein levels (densitometry as a function of tubulin) vs control cells, wildtype [1] | α-synuclein levels in the A53T lines [2] | α-synuclein levels, mitotic A30P lines [3] | fold increase in α-synuclein levels (densitometry as a function of tubulin) vs control cells, A30P [3] | α-synuclein levels [4] | cell death or overt aggregate formation ([4]; proteasome inhibitors for 48 hours) | 120Q-induced photoreceptor degeneration ([5]; 1 μM rapamycin in food from larval stage into adulthood, vs DMSO) | number of visible rhabdomeres per ommatidium ([5]; 1 μM rapamycin in food, two and three days after eclosion, p<0.0001) | frequency of ommatidia with seven rhabdomeres ([5]; HD 120Q flies, 2 and 3 days post-eclosion) |
| --- | --- | --- | --- | --- | --- | --- | --- | --- | --- | --- |
| Cn1cnc(N)c2ncnc1-2 [3-MA, 3-methyl adenine] | slight changes, at best | 1.48 fold | obvious increase | slight changes, at best | 1.13 fold |  |  |  |  |  |
| CO/C1=C\C(C)=C\[C@@H](C)[C@@H](O)[C@@H](C)C/C(C)=C/C=C/[C@H](OC)[C@@H]([C@@H](C)[C@@H](O)[C@H](C)[C@@]2(O)C[C@@H](O)[C@H](C)[C@@H](C(C)C)O2)OC1=O [BafA1, Bafilomycin A1] | slight changes, at best | 1.12 fold | obvious increase | slight changes, at best | 1.19 fold |  |  |  |  |  |
| CC[C@H](C)[C@H](NC(=O)[C@H]([C@@H](C)CC)N(C)C(C)=O)C(=O)N[C@H](C(=O)N[C@@H](CC(C)C)C(=O)[C@@]1(C)CO1)[C@@H](C)O [epoxomicin] |  |  |  |  |  | increase | did not cause increased cell death or overt aggregate formation |  |  |  |
| rapamycin |  |  |  |  |  | significantly reduce |  | dramatically rescued | significantly increased | dramatically increases |
